Test results from the CheMixHub ionic liquid set.
± gives the uncertainty stated by the source.

Assay: xn = mol fraction of the nth substance listed

CCCCCCCCCCCCCCCC[n+]1ccccc1.O=C([O-])c1ccccc1O + NCC(=O)O + O
electrical conductivity [S/m], 101 kPa
Conditions | 293.15 K | 298.15 K | 303.15 K | 308.15 K | 313.15 K
x2 = 0.0009002, x1 = 5.4e-07 | 0.000445 ± 2.7e-05 | 0.000504 ± 3e-05 | 0.00057 ± 3.4e-05 | 0.000642 ± 3.9e-05 | 0.000723 ± 4.3e-05
x2 = 0.0009002, x1 = 1.26e-06 | 0.00068 ± 4.1e-05 | 0.000773 ± 4.6e-05 | 0.00087 ± 5.2e-05 | 0.000972 ± 5.8e-05 | 0.00108 ± 6.5e-05
x2 = 0.0009002, x1 = 1.63e-06 | 0.000841 ± 5e-05 | 0.000952 ± 5.7e-05 | 0.00107 ± 6.4e-05 | 0.0012 ± 7.2e-05 | 0.00134 ± 8e-05
x2 = 0.0009002, x1 = 1.99e-06 | 0.000997 ± 6e-05 | 0.00113 ± 6.9e-05 | 0.00127 ± 7.6e-05 | 0.00141 ± 8.6e-05 | 0.00156 ± 9.4e-05
x2 = 0.0009002, x1 = 2.35e-06 | 0.00114 ± 6.8e-05 | 0.00129 ± 7.7e-05 | 0.00145 ± 8.7e-05 | 0.00161 ± 9.7e-05 | 0.00179 ± 0.00011
x2 = 0.0009002, x1 = 2.89e-06 | 0.00127 ± 7.6e-05 | 0.00145 ± 8.7e-05 | 0.00164 ± 9.9e-05 | 0.00184 ± 0.00011 | 0.00205 ± 0.00012
x2 = 0.0009002, x1 = 3.43e-06 | 0.00141 ± 8.4e-05 | 0.00161 ± 9.9e-05 | 0.00185 ± 0.00011 | 0.00211 ± 0.00013 | 0.00234 ± 0.00014
x2 = 0.0009002, x1 = 4.16e-06 | 0.00157 ± 9.4e-05 | 0.0018 ± 0.00011 | 0.00206 ± 0.00012 | 0.00234 ± 0.00014 | 0.00264 ± 0.00016
x2 = 0.0009002, x1 = 4.88e-06 | 0.00173 ± 0.0001 | 0.00198 ± 0.00012 | 0.00226 ± 0.00014 | 0.00258 ± 0.00016 | 0.00292 ± 0.00018
x2 = 0.0009002, x1 = 5.6e-06 | 0.0019 ± 0.00011 | 0.00216 ± 0.00013 | 0.00247 ± 0.00015 | 0.00281 ± 0.00017 | 0.00318 ± 0.00019
x2 = 0.0009002, x1 = 6.32e-06 | 0.00205 ± 0.00012 | 0.00234 ± 0.00014 | 0.00267 ± 0.00016 | 0.00302 ± 0.00018 | 0.00343 ± 0.00021
x2 = 0.0009002, x1 = 6.87e-06 | – | – | – | – | 0.00364 ± 0.00022
x2 = 0.0009002, x1 = 7.05e-06 | 0.00217 ± 0.00013 | 0.0025 ± 0.00015 | 0.00284 ± 0.00017 | 0.00321 ± 0.00019 | –
x2 = 0.0009002, x1 = 7.59e-06 | 0.00232 ± 0.00014 | 0.00264 ± 0.00016 | 0.003 ± 0.00018 | 0.00339 ± 0.0002 | 0.00383 ± 0.00023
x2 = 0.0009002, x1 = 8.13e-06 | 0.00244 ± 0.00015 | 0.00278 ± 0.00017 | 0.00314 ± 0.00019 | 0.00356 ± 0.00021 | 0.00402 ± 0.00024
x2 = 0.0009002, x1 = 8.67e-06 | 0.00258 ± 0.00015 | 0.00292 ± 0.00018 | 0.00331 ± 0.0002 | 0.00374 ± 0.00022 | 0.00421 ± 0.00025
x2 = 0.001799, x1 = 3.6e-07 | 0.000498 ± 3e-05 | 0.000578 ± 3.5e-05 | 0.00067 ± 4e-05 | 0.000776 ± 4.7e-05 | 0.0009 ± 5.4e-05
x2 = 0.001799, x1 = 9.1e-07 | 0.000684 ± 4.1e-05 | 0.000791 ± 4.8e-05 | 0.00091 ± 5.5e-05 | 0.00104 ± 6.2e-05 | 0.00119 ± 7.1e-05
x2 = 0.001799, x1 = 1.45e-06 | 0.000895 ± 5.4e-05 | 0.00102 ± 6.2e-05 | 0.00117 ± 7.1e-05 | 0.00132 ± 8e-05 | 0.0015 ± 9e-05
x2 = 0.001799, x1 = 1.99e-06 | 0.0011 ± 6.6e-05 | 0.00125 ± 7.7e-05 | 0.00141 ± 8.5e-05 | 0.0016 ± 9.6e-05 | 0.0018 ± 0.00011
x2 = 0.001799, x1 = 2.17e-06 | 0.00119 ± 7.1e-05 | 0.00135 ± 8.1e-05 | 0.00153 ± 9.2e-05 | 0.00172 ± 0.0001 | 0.00194 ± 0.00012
x2 = 0.001799, x1 = 2.54e-06 | 0.00127 ± 7.6e-05 | 0.00145 ± 8.8e-05 | 0.00166 ± 9.9e-05 | 0.00187 ± 0.00011 | 0.00209 ± 0.00013
x2 = 0.001799, x1 = 2.72e-06 | 0.00134 ± 8.1e-05 | 0.00155 ± 9.3e-05 | 0.00178 ± 0.00011 | 0.002 ± 0.00012 | 0.00225 ± 0.00014
x2 = 0.001799, x1 = 3.08e-06 | 0.0014 ± 8.4e-05 | 0.00162 ± 9.7e-05 | 0.00186 ± 0.00011 | 0.0021 ± 0.00013 | 0.00237 ± 0.00014
x2 = 0.001799, x1 = 3.26e-06 | – | – | 0.00195 ± 0.00012 | 0.00223 ± 0.00013 | 0.00251 ± 0.00015
x2 = 0.001799, x1 = 3.44e-06 | 0.00146 ± 8.8e-05 | 0.00169 ± 0.0001 | – | – | –
x2 = 0.001799, x1 = 3.81e-06 | 0.00155 ± 9.3e-05 | 0.0018 ± 0.00011 | 0.00206 ± 0.00012 | 0.00236 ± 0.00014 | 0.00267 ± 0.00016
x2 = 0.001799, x1 = 4.35e-06 | 0.00167 ± 0.0001 | 0.00192 ± 0.00012 | 0.0022 ± 0.00013 | 0.00253 ± 0.00015 | 0.00287 ± 0.00017
x2 = 0.001799, x1 = 4.89e-06 | 0.00179 ± 0.00011 | 0.00206 ± 0.00012 | 0.00236 ± 0.00015 | 0.0027 ± 0.00016 | 0.00307 ± 0.00018
x2 = 0.001799, x1 = 5.44e-06 | 0.00192 ± 0.00012 | 0.0022 ± 0.00013 | 0.00252 ± 0.00015 | 0.00289 ± 0.00017 | 0.00328 ± 0.0002
x2 = 0.001799, x1 = 5.98e-06 | 0.00202 ± 0.00012 | 0.00232 ± 0.00014 | 0.00265 ± 0.00016 | 0.00303 ± 0.00018 | 0.00344 ± 0.00021
x2 = 0.001799, x1 = 6.34e-06 | – | – | – | – | 0.00359 ± 0.00022
x2 = 0.001799, x1 = 6.52e-06 | 0.00213 ± 0.00013 | 0.00244 ± 0.00015 | 0.00278 ± 0.00017 | 0.00316 ± 0.00019 | –

CCCC[n+]1ccn(C)c1.O=S(=O)([O-])C(F)(F)F + NCCO
Conditions | viscosity [mPa·s]
293.15 K, 101 kPa, x2 = 0.3209 | 52.92 ± 0.78

CCCC[n+]1ccn(C)c1.[Cl-] + NCCO
viscosity [mPa·s], 100 kPa
Conditions | 293 K | 303 K | 303.1 K | 313.1 K | 333.2 K
x2 = 0.5 | – | – | 95.3 ± 2.8 | 57 ± 0.7 | 24.9 ± 0.3
x2 = 0.677 | 62.3 ± 0.9 | 37.1 ± 0.5 | – | 24.1 ± 0.3 | –

CCCC[n+]1ccn(C)c1.O=S(=O)([O-])C(F)(F)F + NCCO + O
viscosity [mPa·s], 101 kPa
Conditions | 293.15 K | 298.15 K | 303.15 K | 308.15 K | 313.15 K | 318.15 K | 323.15 K | 328.15 K | 333.15 K
x2 = 0.1349, x3 = 0.8555 | 4.3 ± 0.039 | 3.656 ± 0.033 | 3.152 ± 0.028 | 2.758 ± 0.025 | 2.447 ± 0.022 | 2.198 ± 0.02 | 2.004 ± 0.018 | 1.847 ± 0.017 | 1.718 ± 0.015
x2 = 0.1564, x3 = 0.8171 | – | 5.025 ± 0.099 | 4.267 ± 0.08 | 3.67 ± 0.066 | 3.186 ± 0.055 | 2.805 ± 0.047 | 2.511 ± 0.04 | 2.269 ± 0.034 | 2.073 ± 0.032
x2 = 0.2358, x3 = 0.6935 | 11.54 ± 0.16 | 9.48 ± 0.14 | 7.87 ± 0.12 | 6.611 ± 0.099 | 5.618 ± 0.082 | 4.823 ± 0.069 | 4.182 ± 0.059 | 3.665 ± 0.051 | 3.242 ± 0.044

CCCC[n+]1ccn(C)c1.O=S(=O)([O-])C(F)(F)F + Nc1ccccc1
100 kPa
Conditions | viscosity [mPa·s]
288.15 K, x2 = 0 | 132.7 ± 6.1
293.15 K, x2 = 0.3002 | 57.6 ± 2.6
298.15 K, x2 = 0.1995 | 56.1 ± 2.5
303.15 K, x2 = 0.3002 | 37.3 ± 1.6
318.15 K, x2 = 0.3996 | 17.67 ± 0.78
323.15 K, x2 = 0.3002 | 18.28 ± 0.81
323.15 K, x2 = 0.8999 | 3.12 ± 0.14
328.15 K, x2 = 0.8999 | 2.76 ± 0.12
333.15 K, x2 = 0.1995 | 16.23 ± 0.72
